Test results taken from patent US6303618A, “Cyclin dependent kinase inhibiting purine derivatives” (priority 1997, dated 2001).
Where “and” joins values, the source holds several entries; their conditions need not be identical. Identical values can stand only once. Like-named read-outs stand apart in the source and are kept apart here.

Columns and labels:
CDK1 (p34 cdc2)/cyclin B = assay: CDK inhibition assay (histone H1 kinase), CDK1; type: biochemical, starfish (Marthasterias glacialis); details: for IC50: CDK1; for IC50 / effect of side chain at N9 or N7, or halo at C2, on activity: Table 1; for effect of side chain at N9 or N7, or halo at C2, on activity: in words; for % inhibition CDK1: at 100 μM
Description: (§1) By way of example, however, a typical protocol is summarised below.
Histone H1 (type III-S (Sigma) 4° C.) 5 mg/ml in buffer C.
[^32 P]ATP […]: Make up using (multiples of) the following proportions:
DMSO cannot exceed 1% in the assay mixture. Inhibitors are added at 1/10 final assay volume and 10×final strength. DMSO stocks must therefore be diluted to 10×final desired concentration in ≤10% DMSO, ≥90% buffer C.
Start reaction in each tube at 30 second intervals by adding
5 ml [^32 P]ATP vortexing and placing in rack in waterbath at 30° C.
Terminate reaction after 10 min at 30 second intervals in tubes in same order by removing
25 ml reaction mix and spotting onto appropriately labelled filter, allowing to dry for 20-30 seconds and transferring to stirring 1% phosphoric acid.
Blank incubation is performed as above but without histone (add […] buffer C instead) Washing blank is […] ATP added directly to filter.

CDK2 = CDK2 (Homo sapiens, UniProt P24941); assay: CDK inhibition assay, CDK2; type: biochemical; details: for IC50: Table 1
Excerpt: (§2) Apart from reference compounds, the compounds listed are accompanied by an NU reference or identification code number.
as §1

CDK4 = CDK4 (Homo sapiens, UniProt P11802); assay: CDK inhibition assay, CDK4; type: biochemical; details: CDK4; Table 1; read-out: IC50 CDK4
Excerpt: as §2, §1

[1] = read-out: % inhibition CDK2, at 100 μM
[2] = at 100 μM, read-out: % inhibition CDK2

Sequence of CDK4 (P11802 whole entry, species assumed): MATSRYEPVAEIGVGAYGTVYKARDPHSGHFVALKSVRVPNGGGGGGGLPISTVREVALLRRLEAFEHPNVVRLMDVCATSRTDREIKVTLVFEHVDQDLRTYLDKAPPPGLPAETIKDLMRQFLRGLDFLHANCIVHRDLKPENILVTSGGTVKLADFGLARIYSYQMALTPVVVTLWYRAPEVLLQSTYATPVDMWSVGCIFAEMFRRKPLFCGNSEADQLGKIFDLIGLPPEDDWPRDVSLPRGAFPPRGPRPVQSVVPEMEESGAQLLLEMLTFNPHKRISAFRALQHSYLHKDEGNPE
Sequence of CDK4 (P24385 whole entry partner, species assumed): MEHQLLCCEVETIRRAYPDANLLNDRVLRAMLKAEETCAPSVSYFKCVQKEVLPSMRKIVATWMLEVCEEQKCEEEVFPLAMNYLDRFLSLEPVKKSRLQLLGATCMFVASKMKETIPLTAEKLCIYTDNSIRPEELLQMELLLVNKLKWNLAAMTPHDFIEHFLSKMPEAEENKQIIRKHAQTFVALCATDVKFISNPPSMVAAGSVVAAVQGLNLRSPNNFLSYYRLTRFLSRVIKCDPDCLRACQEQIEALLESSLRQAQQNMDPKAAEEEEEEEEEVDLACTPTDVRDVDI

Nc1nc(OCc2ccco2)c2nc[nH]c2n1 [2-amino-6-(2-furanyl)-methyloxypurine]
IC50 (CDK1 (p34 cdc2)/cyclin B): 75 µM

c1ccc(COc2ncnc3nc[nH]c23)cc1 [NU2002, 6-Benzyloxypurine]
IC50 (CDK1 (p34 cdc2)/cyclin B): 51 µM

COc1nc(N)nc2nc[nH]c12 [NU2004, 2-amino-6-methoxypurine]
IC50 (CDK1 (p34 cdc2)/cyclin B): 200 µM

Nc1nc(OCc2ccccc2)c2[nH]cnc2n1 [NU2005, 2-amino-6-benzyloxypurine]
IC50 (CDK1 (p34 cdc2)/cyclin B): 35 µM
IC50 (CDK2; IC50 CDK2, CDK2): 28.6 µM
inhibition at 100 µM (CDK2; [1]): 64 ± 3%
IC50 (CDK4): 100 µM

C=CCOc1ncnc2nc[nH]c12 [NU2013, 6-Allyloxypurine]
IC50 (CDK1 (p34 cdc2)/cyclin B): 110 µM

c1nc(OCC2CCCCO2)c2[nH]cnc2n1 (stereo not shown) [NU2014, 6-(2-tetrahydropyranyl-methyloxy)purine]
IC50 (CDK1 (p34 cdc2)/cyclin B): > 100 µM

c1nc(OCC2CCCCC2)c2[nH]cnc2n1 [NU2017, 6-cyclohexylmethoxypurine]
IC50 (CDK1 (p34 cdc2)/cyclin B): 16 µM
IC50 (CDK2; CDK2, read-out: IC50 CDK2): 15.5 µM
inhibition at 100 µM (CDK2; [1]): 61 ± 2%

c1ccc(CCOc2ncnc3nc[nH]c23)cc1 [NU2023, 6-(2-Phenylethyloxy)purine]
IC50 (CDK1 (p34 cdc2)/cyclin B): 130 µM

C=CCOc1nc(N)nc2nc[nH]c12 [NU2028, 2-amino-6-allyloxypurine]
IC50 (CDK1 (p34 cdc2)/cyclin B): 50 µM
IC50 (CDK4): > 100 µM

C#CCOc1nc(N)nc2[nH]cnc12 [NU2031, O^6 -Propargylguanine]
IC50 (CDK1 (p34 cdc2)/cyclin B): 60 µM

CCOC(C)(COc1nc(N)nc2[nH]cnc12)OCC [NU2032, 2-amino-6-(2,2-diethoxy) propoxypurine]
IC50 (CDK1 (p34 cdc2)/cyclin B): > 100 µM

Nc1nc(OCC(=O)c2ccccc2)c2nc[nH]c2n1 [NU2033, O^6-(2-Oxo-2-phenylethyl)guanine]
IC50 (CDK1 (p34 cdc2)/cyclin B): 100 µM

C=C(C)COc1nc(N)nc2[nH]cnc12 [NU2034, O^6-(2-Methylallyl)guanine]
IC50 (CDK1 (p34 cdc2)/cyclin B): 32 µM

CC(=O)COc1nc(N)nc2[nH]cnc12 [NU2035, O^6-(2-Oxopropyl)guanine]
IC50 (CDK1 (p34 cdc2)/cyclin B): 100 µM

C=CCOc1nc(N)nc2c1ncn2CC=C [NU2036, N^9,O^6 -Diallylguanine]
IC50 (CDK1 (p34 cdc2)/cyclin B): > 1000 µM
effect of side chain at N9 or N7, or halo at C2, on activity (CDK1 (p34 cdc2)/cyclin B): activity drastically diminishes

C=CCOc1nc(N)nc2ncn(CC=C)c12 [NU2037, N^7,O^6 -Diallylguanine]
IC50 (CDK1 (p34 cdc2)/cyclin B): > 1000 µM
effect of side chain at N9 or N7, or halo at C2, on activity (CDK1 (p34 cdc2)/cyclin B): activity drastically diminishes

C=CCOc1nc(N)nc2c1ncn2Cc1ccccc1 [NU2038, O^6 -Allyl-N^9 -benzylguanine]
IC50 (CDK1 (p34 cdc2)/cyclin B): > 1000 µM
effect of side chain at N9 or N7, or halo at C2, on activity (CDK1 (p34 cdc2)/cyclin B): activity drastically diminishes

Nc1nc(OCC(O)CO)c2nc[nH]c2n1 (stereo not shown) [NU2040, 2-amino-6-(2,3-dihydroxy) propoxypurine]
IC50 (CDK1 (p34 cdc2)/cyclin B): > 100 µM

Nc1nc(OCCc2ccccc2)c2nc[nH]c2n1 [NU2041, O^6-(2-Phenylethyl)guanine]
IC50 (CDK1 (p34 cdc2)/cyclin B): 100 µM

C=C(COc1nc(N)nc2[nH]cnc12)c1ccccc1 [NU2042, O^6-(2-Phenylallyl)guanine]
IC50 (CDK1 (p34 cdc2)/cyclin B): 40 µM
IC50 (CDK2; CDK2, read-out: IC50 CDK2): 23.3 µM
inhibition at 100 µM (CDK2; [1]): 75 ± 2%
IC50 (CDK4): > 100 µM and 330 µM

COCC(COc1nc(N)nc2nc[nH]c12)OC (stereo not shown) [NU2044, 2-amino-6-(2,3-dimethoy)propoxypurine]
IC50 (CDK1 (p34 cdc2)/cyclin B): > 100 µM

CCCOc1nc(N)nc2nc[nH]c12 [NU2045, 2-amino-6-propoxypurine]
IC50 (CDK1 (p34 cdc2)/cyclin B): 50 µM

CCOc1nc(N)nc2nc[nH]c12 [NU2046, 2-amino-6-ethoxypurine]
IC50 (CDK1 (p34 cdc2)/cyclin B): 100 µM

C=CCOc1nc(N(C)C)nc2nc[nH]c12 [NU2048, 2-(N,N-dimethyl)amino-6-allyloxypurine]
IC50 (CDK1 (p34 cdc2)/cyclin B): 22 µM

CCC(COc1nc(N)nc2[nH]cnc12)(OC)OC [NU2050, 2-amino-6-(2,2-dimethoxy) butyloxypurine]
IC50 (CDK1 (p34 cdc2)/cyclin B): > 100 µM

C=CCOc1nc(Cl)nc2nc[nH]c12 [NU2051, 6-allyloxy-2-chloropurine]
IC50 (CDK1 (p34 cdc2)/cyclin B): 400 µM
effect of side chain at N9 or N7, or halo at C2, on activity (CDK1 (p34 cdc2)/cyclin B): activity drastically diminishes

CCCCOc1nc(N)nc2nc[nH]c12 [NU2052, 2-amino-6-n-butoxypurine]
IC50 (CDK1 (p34 cdc2)/cyclin B): 30 µM

CC(C)CCOc1nc(N)nc2nc[nH]c12 [NU2053, O^6-(3'-Methyl)butylguanine]
IC50 (CDK1 (p34 cdc2)/cyclin B): 18 µM
IC50 (CDK4): 70 µM

C=C(CC)COc1nc(N)nc2[nH]cnc12 [NU2054, O^6-(2-Ethylallyl)guanine]
IC50 (CDK1 (p34 cdc2)/cyclin B): 20 µM

C=C(COc1nc(N)nc2[nH]cnc12)C(C)C [NU2055, O^6-(2-Isopropylallyl)guanine]
IC50 (CDK1 (p34 cdc2)/cyclin B): 13 µM

CC(C)C(=O)COc1nc(N)nc2nc[nH]c12 [NU2056, O^6-(3-Methyl-2-oxobutyl)guanine]
IC50 (CDK1 (p34 cdc2)/cyclin B): 22 µM
inhibition at 100 µM (CDK2; [1]): 33 ± 2%
IC50 (CDK4): 122 µM

CC(C)C1(COc2nc(N)nc3[nH]cnc23)OCCO1 [NU2057, O^6-(3-Methyl-2-oxobutyl)guanine ethylene acetal]
IC50 (CDK1 (p34 cdc2)/cyclin B): 105 µM

C=CCCCCOc1nc(N)nc2[nH]cnc12 [NU2061, O^6-(5'-Hexenyl)guanine]
IC50 (CDK1 (p34 cdc2)/cyclin B): 12 µM

CCCCCCCOc1nc(N)nc2nc[nH]c12 [NU2064, 2-amino-6-heptyloxypurine]
IC50 (CDK1 (p34 cdc2)/cyclin B): 31 µM

CC/C=C/CCOc1nc(N)nc2[nH]cnc12 [NU2067, O^6-(trans-3'-Hexenyl)guanine]
IC50 (CDK1 (p34 cdc2)/cyclin B): 38 µM

Nc1nc(OCC2CCCC2)c2nc[nH]c2n1 [NU2068, O^6 -(Cyclopentyl)methylguanine]
IC50 (CDK1 (p34 cdc2)/cyclin B): 30 µM
IC50 (CDK4): 34 µM

Nc1nc(OCC2=CCCC2)c2nc[nH]c2n1 [NU2074, O^6-(1'-Cyclopentenyl)methylguanine]
IC50 (CDK1 (p34 cdc2)/cyclin B): 7 µM

Nc1nc(OCC2=CCCCC2)c2nc[nH]c2n1 [NU2076, O^6-(1'-Cyclohexenyl)methylguanine]
IC50 (CDK1 (p34 cdc2)/cyclin B): 8 µM

COC(COc1nc(N)nc2[nH]cnc12)(OC)c1ccccc1 [NU2081, 2-amino-6-(2,2-dimethoxy)-2-phenylethyloxypurine]
IC50 (CDK1 (p34 cdc2)/cyclin B): > 100 µM

CC1(C)OCC(COc2nc(N)nc3[nH]cnc23)O1 (stereo not shown) [NU6021, O^6-(2,2-Dimethyl-1,3-dioxolane-4-methoxy)guanine]
% inhibition CDK1 (CDK1 (p34 cdc2)/cyclin B): 36 ± 9%
inhibition at 100 µM (CDK2; [1]): 35 ± 6%

Nc1nc(OCC2COC3(CCCCC3)O2)c2nc[nH]c2n1 (stereo not shown) [NU6022, O^6-(1,4-Dioxaspiro[4.5]decane-2-methoxy)guanine]
% inhibition CDK1 (CDK1 (p34 cdc2)/cyclin B): 26 ± 6%
inhibition at 100 µM (CDK2; [1]): 27 ± 4%

CC1(C)OC[C@@H](COc2nc(N)nc3[nH]cnc23)O1 [NU6024, 2-amino-6-[(R)-2',2'-dimethyl-1',3'-dioxolane-5'-methyl]oxypurine]
% inhibition CDK1 (CDK1 (p34 cdc2)/cyclin B): 50 ± 1%
inhibition at 100 µM (CDK2; [2]): 38 ± 3%

CC1(C)OC[C@H](COc2nc(N)nc3[nH]cnc23)O1 [NU6025, 2-amino-6-[(S)-2',2'-dimethyl-1',3'-dioxolane-5'-methyl]oxypurine]
% inhibition CDK1 (CDK1 (p34 cdc2)/cyclin B): 34 ± 2%
inhibition at 100 µM (CDK2; [1]): 28 ± 4%

Nc1nc(OCC2COc3ccccc3O2)c2nc[nH]c2n1 (stereo not shown) [NU6026, 2-amino-6-[1',4'-benzodioxanyl-2'-methyl]oxypurine]
% inhibition CDK2 (CDK2; at 10 μM): 9%
inhibition at 10 µM (CDK2; read-out: % inhibition CDK2, at 10 μM): 12%
inhibition at 100 µM (CDK2; [1]): 96%
IC50 (CDK4): > 100 µM

Nc1nc(OCc2cccnc2)c2nc[nH]c2n1 [NU6029, 2-Amino-6-(3'-pyridyl)methyloxypurine]
% inhibition CDK1 (CDK1 (p34 cdc2)/cyclin B): 56 ± 4%
inhibition at 100 µM (CDK2; [2]): 43 ± 4%

Nc1nc(N)c(N)c(OCC2CCCCC2)n1 [NU6035, 2,5,6-triamino-4(cyclohexylmethoxy)-pyrimidine]
% inhibition CDK1 (CDK1 (p34 cdc2)/cyclin B): 40 ± 4%
inhibition at 100 µM (CDK2; [1]): 54 ± 8%

Nc1cc(OCc2ccccc2)nc(N)n1 [NU6038]
% inhibition CDK1 (CDK1 (p34 cdc2)/cyclin B): 3 ± 3%
inhibition at 100 µM (CDK2; [2]): 0%

Nc1nc(N)c(N=O)c(OCc2ccccc2)n1 [NU6039, 2,6-diamino-4-(benzylmethoxy) 5-nitrosopyrimidine]
% inhibition CDK1 (CDK1 (p34 cdc2)/cyclin B): 54 ± 9%
inhibition at 100 µM (CDK2; [1]): 51 ± 2%

Nc1nc(N)c(N)c(OCc2ccccc2)n1 [NU6040, 2,5,6-triamino-4-(benzylmethoxy) pyrimidine]
inhibition at 100 µM (CDK2; [2]): 6 ± 10%

CNc1cc(Cl)nc(N)n1 [NU6042, 2-amino-4-chloro-6-methylamino pyrimidine]
inhibition at 100 µM (CDK2; [2]): 14 ± 24%

Nc1nc(OCc2ccccc2)c2[nH]c(=O)[nH]c2n1 [NU6043, 2-Amino-6-benzyl-8-oxoguanine]
% inhibition CDK1 (CDK1 (p34 cdc2)/cyclin B): 13 ± 9%
inhibition at 100 µM (CDK2; [2]): 8 ± 13%

Nc1cc(OCC2CC=CCC2)nc(N)n1 (stereo not shown) [NU6046]
% inhibition CDK1 (CDK1 (p34 cdc2)/cyclin B): 16 ± 13%
inhibition at 100 µM (CDK2; [1]): 8 ± 1%
